Experimental findings from patent publication US20230365564A1, “COCRYSTALS OF AN ADENOSINE A2B RECEPTOR ANTAGONIST” (Teon Therapeutics, Inc., priority 2020, published 2023) are described below.

SMILES strings stand for the structures. Where only a bound is given, the exact number is not on record here.

Data set [1] in a line: Dynamic vapor sorption (DVS) hygroscopicity. The format is physicochemical. As to conditions: for water absorption (DVS): at 95% RH; for water absorption (DVS) / form change after DVS: 25° C.; for form change after DVS: humidity cycle 40-0-95-0-40% RH. Here is the method: Dynamic vapor sorption (DVS) was performed using an Advantage instrument at a total gas flow rate of 200 sccm, an oven temperature of 25° C. with water as the solvent. The humidity cycle was 40-0-95-0-40% RH at step intervals of 10% RH with an equilibration of 0.002 dm/dt (%/min), a maximum, dm/dt stability duration of 60 min, and a maximum dm/dt stage time of 360 min.

A short description of data set [2]: Kinetic solubility (solubility-time profile) in biologically relevant fluids. Format: physicochemical. The following applies: for solubility-time profile: 0.5 h to 24 h; for solubility compared with the free form: several biologically relevant media; for solubility: 0.5 h, 2 h and 24 h. As to the method:
The solubility-time profile of free form compound (1) and the three cocrystals was evaluated in different aqueous media.
(§1) The kinetic solubility experiments were conducted for the free form and the three cocrystals in the following media: (1) pH 1.0 (0.1N) HCl solution, (2) pH 4.5 (50 mM) acetate buffer, (3) pH 6.8 (50 mM) phosphate buffer, (4) FeSSIF-v1 (Fed state stimulated intestinal fluid version 1) (pH 5.0), (5) FaSSIF-v1 (Fasted state stimulated intestinal fluid version 1) (pH 6.5), (6) SGF (Simulated gastric fluid) (pH 2.0), and (7) FaSSIF-v1/4% Soluplus®, and (8) SGF/4% Soluplus®.
(§2) After combining with the respective media at 37° C., the concentration of the free form or cocrystal and the XRPD was measured at 0.5 hours, 2 hours, and 24 hours.

Data set [3] is described as follows: Bulk stability (HPLC and XRPD). Format: physicochemical. Here is the method: The bulk stability of the free form and the cocrystals was determined by exposing the compounds to conditions of temperature, humidity and/or radiation flux and evaluating the compound by HPLC and XRPD.
Data set [4] in a line: XRPD form change after standing in aqueous media at 37° C. Format: physicochemical. The following applies: for form change (XRPD) after equilibrating in the aqueous media: 24 hours at 37° C. As to the method: X-ray powder diffraction (XRPD) was performed using a Bruker D8 Advance® instrument with a Lynxeye® XE T(1D mode) detector at an open angle of 2.94° in continuous scan mode using a Cu/K-α (λ−1.5418 Å) source. The diffraction patterns were obtain over a scan range from 3° to 40° with 0.02° steps, a step duration of 0.12, and a sample rotation speed of 15 rpm.
as §1, §2
The XRPD patterns shown in FIGS. 19-23 are associated with the aqueous media described in Table 1 and for the free form (Compound (1), FF), the benzenesulfonic acid cocrystal (BSA CC), the para-toluenesulfonic acid cocrystal (pTSA CC), and the fumaric acid cocrystal (FA CC).

A short description of data set [5]: Pharmacokinetics following peroral administration to dogs. As to conditions: dog, in vivo. Set-up: species or system beagle dogs. Here is the method: The pharmacokinetics of the fumaric acid cocrystal of Example 4 was evaluated following peroral administration to dogs.
Male beagle dogs were separated into two groups of three dogs.
[…] The dosing formulation consisted of 0.40 mg/mL of the fumaric acid cocrystal in 4% Soluplus® in simulated gastric fluid (SGF) at pH 2.0, as a homogeneous opaque suspension of fine particles.
[…] The dosing formulation consisted of 2 mg/mL of the fumaric acid cocrystal in 4% Soluplus® in simulated gastric fluid (SGF) at pH 2.0, as a homogeneous opaque suspension of fine particles.

A short description of data set [6]: Aqueous solubility of compound (1). The format is physicochemical. The following applies: aqueous medium; substantially independent of pH over a relevant physiological range.
Setting [7] is: above 80% RH at 25° C. (then becomes).
Where [8] appears, read: 25° C./60% RH in an open vial, 2 weeks.
Where [9] appears, read: 40° C./75% RH in an open vial, 2 weeks.
[10] abbreviates: 60° C. in a closed vial, 2 weeks.
The mark [11] stands for this setting: pH 1.0 HCl, pH 4.5 acetate, pH 6.8 phosphate, FeSSIF-v1, FaSSIF-v1.
The mark [12] stands for this setting: SGF, FaSSIF-v1/4% Soluplus and SGF/4% Soluplus.
The mark [13] stands for this setting: po, 2 mg/kg peroral, fed male beagle dogs, 4% Soluplus in SGF pH 2.0.
The mark [14] stands for this setting: po, 10 mg/kg peroral, fed male beagle dogs, 4% Soluplus in SGF pH 2.0.
Where [15] appears, read: oral, 5 mg/kg, 0.5% methylcellulose.

As to `CCCn1c(=O)c2[nH]c(-c3cnn(Cc4cccc(C(F)(F)F)c4)c3)nc2n(CC)c1=O.O=S(=O)(O)c1ccccc1` [benzenesulfonic acid cocrystal, 3-ethyl-1-propyl-8-(1-(3-(trifluoromethyl)benzyl)-1H-pyrazol-4-yl)-3,7-dihydro-1H-purine-2,6-dione and benzenesulfonic acid], the water adsorption worked out at 2.2 wt % in data set [1] (25° C./80% RH) and 65 wt % in data set [1] (25° C./95% RH). Also, the figures for the “hygroscopicity (DVS)” value in data set [1] (setting [7]) and in data set [1] (below 80% RH at 25° C.) were “highly hygroscopic” and “only slightly hygroscopic”, respectively. Moreover, the “water absorption (DVS)” value in data set [1] is reported as 65%. The “form change after DVS” value in data set [1] is given as “No form change”. Further, the solubility-time profile entry in data set [2] (FaSSIF-v1/4% Soluplus, 37° C.) is given as “increased over time”; in data set [2] (SGF/4% Soluplus, 37° C.), “increased over time”. The “solubility compared with the free form” value in data set [2] is given as “higher solubility than the free form”. The bulk stability result in data set [3] (1.2 million lux-hrs) is “stable”; in data set [3] (setting [8]) it was “stable”; in data set [3] (setting [9]), “began to show some disassociation”; in data set [3] (setting [10]) it was “stable”. In addition, in data set [4] (setting [11]), the “form change (XRPD) after equilibrating in the aqueous media” value (shortened to “form change (XRPD) after equilibrating”) was “completely dissociated to the free form”. The “form change after solubility study” value in data set [4] (setting [12]) is recorded as “dissociated to free form”.
Take `CCCn1c(=O)c2[nH]c(-c3cnn(Cc4cccc(C(F)(F)F)c4)c3)nc2n(CC)c1=O.O=C(O)/C=C/C(=O)O` [fumaric acid cocrystal, 3-ethyl-1-propyl-8-(1-(3-(trifluoromethyl)benzyl)-1H-pyrazol-4-yl)-3,7-dihydro-1H-purine-2,6-dione and fumaric acid]: the water adsorption in data set [1] (25° C./80% RH) is given as 1.7 wt %; in data set [1] (25° C./95% RH), 4.0 wt %. In addition, the figures for the “hygroscopicity (DVS)” value in data set [1] (above 90% RH at 25° C. (then becomes)) and in data set [1] (below 90% RH at 25° C.) were “hygroscopic” and “slightly hygroscopic”, respectively. Further, the “water absorption (DVS)” value in data set [1] is reported as 4%. The “form change after DVS” value in data set [1] is recorded as “No form change”. The “solubility compared with the free form” value in data set [2] is listed as “higher solubility than the free form”. Moreover, the results for the AUC(0-inf) in data set [5] (setting [13]) and in data set [5] (setting [14]) were 2.22 µg·h/mL and 21.1 µg·h/mL, respectively. In addition, the Cmax in data set [5] (setting [13]) worked out at 0.148 µg/mL; in data set [5] (setting [14]) it was 0.976 µg/mL. The time of peak concentration (Tmax) in data set [5] (setting [13]) turned out to be 4 h; in data set [5] (setting [14]), 10.7 h. Also, the half-life in data set [5] (setting [13]) is 14.8 h; in data set [5] (setting [14]) it was 6.5 h. The bulk stability entry in data set [3] (1.2 million lux-hrs), in data set [3] (setting [8]), in data set [3] (setting [9]) and in data set [3] (setting [10]) was “did not exhibit any significant degradation” in each case. The “form change (XRPD) after equilibrating” value is recorded as “only partially dissociated to the free form” in data set [4] (FaSSIF-v1), “only partially dissociated to the free form” in data set [4] (FeSSIF-v1), “did not show any form change” in data set [4] (pH 1.0 HCl solution) and “only partially dissociated to the free form” in data set [4] (pH 4.5 acetate buffer). Moreover, the “form change after solubility study” value in data set [4] (FaSSIF-v1/4% Soluplus) is “converted to a mixture of the cocrystal and amorphous state (free form)”; in data set [4] (SGF), “dissociated to free form”; in data set [4] (SGF/4% Soluplus), “converted to a mixture of the cocrystal and amorphous state (free form)”.
As for `CCCn1c(=O)c2[nH]c(-c3cnn(Cc4cccc(C(F)(F)F)c4)c3)nc2n(CC)c1=O.Cc1ccc(S(=O)(=O)O)cc1` [para-toluenesulfonic acid cocrystal, 3-ethyl-1-propyl-8-(1-(3-(trifluoromethyl)benzyl)-1H-pyrazol-4-yl)-3,7-dihydro-1H-purine-2,6-dione and para-toluenesulfonic acid], the water adsorption in data set [1] (25° C./80% RH) and in data set [1] (25° C./95% RH) was 1.1 wt % in each case. The “hygroscopicity (DVS)” value in data set [1] (setting [7]) was “slightly hygroscopic”; in data set [1] (below 80% RH at 25° C.), “only slightly hygroscopic”. For the same compound, the “water absorption (DVS)” value in data set [1] was determined as 11%. Besides, the “form change after DVS” value in data set [1] is recorded as “No form change”. The solubility-time profile entry in data set [2] (FaSSIF-v1/4% Soluplus, 37° C.) was “first increased and then decreased”; in data set [2] (SGF/4% Soluplus, 37° C.), “first increased and then decreased”. Further, the “solubility compared with the free form” value in data set [2] is “higher solubility than the free form”. Moreover, the bulk stability entry in data set [3] (1.2 million lux-hrs), in data set [3] (setting [8]), in data set [3] (setting [9]) and in data set [3] (setting [10]) was “did not exhibit any significant degradation” in each case. The “form change (XRPD) after equilibrating” value in data set [4] (setting [11]) is given as “completely dissociated to the free form”. The “form change after solubility study” value in data set [4] (setting [12]) is listed as “dissociated to free form”.
In the case of `CCCn1c(=O)c2[nH]c(-c3cnn(Cc4cccc(C(F)(F)F)c4)c3)nc2n(CC)c1=O` [Compound (1), 3-Ethyl-1-propyl-8-(1-(3-(trifluoromethyl)benzyl)-1H-pyrazol-4-yl)-3,7-dihydro-1H-purine-2,6-dione], the solubility result in data set [2] (FaSSIF-v1, 37° C.) was “below the level of quantification (LOQ)”; in data set [2] (FeSSIF-v1, 37° C.), “below the level of quantification (LOQ)”; in data set [2] (pH 1.0 HCl solution, 37° C.), “below the level of quantification (LOQ)”; in data set [2] (pH 4.5 acetate buffer, 37° C.), “below the level of quantification (LOQ)”; in data set [2] (pH 6.8 phosphate buffer, 37° C.), “below the level of quantification (LOQ)”; in data set [6], below 1 µg/mL. Further, the solubility-time profile entry is “increased over time” in data set [2] (FaSSIF-v1/4% Soluplus, 37° C.); “maintained in the same magnitude” in data set [2] (SGF, 37° C.); “increased over time” in data set [2] (SGF/4% Soluplus, 37° C.). This compound yielded a Cmax in data set [5] (setting [15]) of 0.081 µg/mL. Besides, the Tmax in data set [5] (setting [15]) came out at 2 h. The compound further had a half-life in data set [5] (setting [15]) of 63 h. Also, the AUC(0-t) in data set [5] (oral, 5 mg/kg, 0.5% methylcellulose, read-out: AUC0-24) came out at 0.796 µg·h/mL. The bulk stability result in data set [3] (1.2 million lux-hrs), in data set [3] (setting [8]), in data set [3] (setting [9]) and in data set [3] (setting [10]) was “did not exhibit any significant degradation” in each case. In addition, in data set [4] (setting [11]), the “form change (XRPD) after equilibrating” value is recorded as “did not show a change in form”. Further, in data set [4] (setting [12]), the “form change after solubility study” value is given as “no form change”.

The AUC(0-inf) is total exposure, with the tail of the curve extrapolated. Low values mean less exposure, high ones more exposure. As usually defined, the Cmax is the highest concentration seen after dosing. The Tmax is the time from dosing to the highest level. One may read the half-life as the time needed for the level to fall by half in the phase considered. What is called solubility is the dissolved amount per volume that the medium holds.
